# From US6673823B2, “Use of peroxisome proliferator activated receptor (PPAR)-γ ligands as a treatment for pituitary tumors and associated conditions, such as Cushing's syndrome” (Cedars-Sinai Medical Center, priority 2002, dated 2004)
# What was measured:
# [1] = system: mouse corticotroph tumor cells (AtT20); test: Western blot analysis of TZD-treated corticotroph cells; type: cell-based; settings: 10^−5 M, vs. vehicle
# Method: Western Blot Analysis: AtT20 cells were seeded at about 1×10^6 per well and human pituitary cell cultures were seeded at about 0.5×10^6 per well in 6-well plates for 24 hours prior to treatment with TZD's. Cells were then washed with PBS, and protein samples prepared in RIPA buffer and resolved under reducing conditions on 12% SDS-polyacrylamide gels using standard methods (Elstner, E., et al., Ligands for peroxisome proliferator-activated receptor-γ and retinoic acid receptor inhibit growth and induce apoptosis of human breast cancer cells in vitro and in BNX mice. Proc. Natl. Acad. Sci. USA 95:8806-8811 [1998]). Resolved proteins were transferred to nitrocellulose membranes and probed with antibodies to Bc1-2 (1:500), Bax (1:1000), TRAIL (1:500), p53 (1:1000) (all from Santa-Cruz, Cailf.), p-Rb (Ser 795) (1:1000), cleaved and uncleaved caspase-3 (1:500) (Cell Signalling, Beverly, Mass.) overnight at 4° C. After washing, membranes were incubated with appropriate IgG- horseradish peroxidase conjugates, and immunoreactive protein bands were visualized with ECL (Amersham, Buckinghamshire, UK). Total protein was normalized by reprobing with anti-actin antibody (1:5000, Sigma, St. Louis, Mo.) or Ponceau S staining, and protein bands quantified by densitometry (Video Densitometer model 620, Bio-Rad).
# human patients = settings: cited from earlier work
# [2] = system: AtT20 mouse pituitary (ACTH-secreting) tumor cells; test: Cell cycle distribution (FACS, propidium iodide); type: cell-based; settings: 10^−6 to 10^−4 M, up to 48 h serum-free or up to 96 h serum-replete
# Method: (§1) Cell Culture. […] Medium was replenished with ligands every 2 days, and cells maintained in serum-containing medium or in serum-free medium for up to 96 hours.
# (§2) Cell Cycle Distribution. Following treatments, AtT20 cells were trypsinized, centrifuged (1500 rpm×2 min), washed with PBS, and treated with 20 µg/mL Rnase A (Calbiochem, La Jolla, Calif.). DNA was stained with 100 μg/mL propidium iodide (PI) for 30 min at 40° C. and protected from light, prior to analysis with a FACScan (Becton Dickinson, Franklin Lakes, N.J.). DNA histogram analysis was performed using the modFitLT software.
# To determine the functional significance of pituitary corticotroph PPAR-γ expression, the effects of PPAR-γ ligands were tested on ACTH-secreting pituitary tumor cells in vitro. Troglitazone or rosiglitazone-treatment (10^−6 to 10^−4 M) for up to 48 hours, when cells were maintained in serum-free conditions, or up to 96 hours, when cells were maintained in serum-replete conditions, induced G0-G1 cell-cycle arrest (control, G1 75±4% vs. ros, G1 85±2%, p=0.009), and led to decreased S-phase cells (control, 18±0.05% vs. ros, 12±0.5%, p=0.001) (FIG. 3A).
# [3] = system: mouse αT3 gonadotroph cells; test: Cell cycle distribution (FACS, propidium iodide); type: cell-based
# Method: as §1
# as §2, with “GH3, αT3, or human pituitary tumor” for “AtT20”, “Cailf.).” for “Calif.).”, “μg/ mL” for “μg/mL”, “4°” for “40°”
# (§3) To determine the functional significance of pituitary tumor PPAR-γ expression, the effects of PPAR-γ ligands was tested on pituitary tumor cells in vitro. Troglitazone or rosiglitazone-treatment ([…]) of GH3 (PRL- and GH-secreting), and αT3 (gonadotroph-secreting) and human pituitary tumor cells for up to 48 hours, in serum-free conditions, or up to 96 hours, for cells maintained in serum-repleted conditions, induced G0-G1 cell-cycle arrest (GH3: control, G1 75±4% vs. ros, G1 85±2%, p=0.009; αT3: control, G1 67±0.5% vs. ros, G1 75±0.5%, p=0.01), and led to decreased number of cells in S-phase (GH3: control, 18±0.05% vs. ros, 12±0.5%, p=0.001; αT3: control, 31±0.5% vs. ros, 16±2.5%, p=0.03) (FIG. 11A).
# [4] = system: rat GH3 (PRL- and GH-secreting) cells; test: Cell cycle distribution (FACS, propidium iodide); type: cell-based
# Method: as §1
# as §2, with “GH3, αT3, or human pituitary tumor” for “AtT20”, “Cailf.).” for “Calif.).”, “μg/ mL” for “μg/mL”, “4°” for “40°”
# as §3
# AtT20 cells = test: TUNEL apoptosis analysis; type: cell-based, mouse
# Method: Terminal Deoxynucleotidyltransferase-mediated dUTP Nick End Labeling (TUNEL). Apoptosis-induced nuclear DNA fragmentation was detected using the in situ cell death detection kit, TMR red (Roche Diagnostics, Indianapolis, IN) following the manufacturer's protocol. Briefly, 48 hours following treatment with thiazolidinedione compounds (TZDs), AtT20 cells were fixed in 4% paraformaldehyde, permeabilized with 0.1% sodium citrate/ 0.6% Tween 20 (pH 7.4) for 2 min at 4° C. prior to incubation in Tunel reaction mix (TMR red/dNTP mix, TdT, and labeling buffer) for 60 min at 37° C. Slides were washed (3×5 min) in PBS/ Triton/ BSA (0.3%) and visualized on an Olympus BH2 immunofluorescent microscope.
# [5] = system: Mouse corticotroph AtT20 pituitary tumor cells; test: Prevention of subcutaneous corticotroph tumor development in athymic nude mice; type: in vivo; settings: oral 150 mg/kg/day, 4 weeks
# [6] = system: Mouse corticotroph pituitary tumor cells (AtT20); test: Growth of established corticotroph tumors in athymic nude mice; type: in vivo; settings: oral 150 mg/kg/day, 3 weeks
# From the text: The effects of TZD treatment were therefore tested on growth of already established pituitary corticotroph tumors, and steroid hormone levels in vivo. Mouse corticotroph pituitary tumor cells (AtT20) were innoculated subcutaneously in athymic nude mice, and tumors allowed to develop. […] Baseline serum ACTH and corticosterone levels, and tumor volumes were not different in the groups subsequently randomized as control or treated groups (data not shown, p=ns). […] All animals were euthanized at 6 weeks. The phenotypic appearance of the mice was strikingly different, and vehicle-treated mice were wasted, developed skin atrophy and appeared pigmented, with features of hypercorticolism (FIG. 8B).
# [7] = system: normal athymic Nu/Nu mice; settings: 150 mg/kg for 6 weeks
# From the text: A person first presented 2 years ago with bruising, skin striae, 70 lb weight gain and hypertension. Evaluation confirmed the diagnosis of Cushing's syndrome due to an ACTH-secreting pituitary tumor, which was resected by transsphenoidal surgery. The patient presented again one year later with weight gain, labile hypertension, diabetes and confirmed recurrence of Cushing's syndrome.
# [8] = system: patient with Cushing's syndrome; test: 24 hour urinary free cortisol excretion in a patient with Cushing's syndrome; type: in vivo, human; settings: 8 mg daily, one patient, vs. baseline, p<0.02
# [9] = system: rat GH3, murine αT3, and human pituitary tumor cells; test: Annexin-FITC, FACS and TUNEL apoptosis analysis; type: cell-based; settings: control 33±3, p<0.0002
# Method: Apoptosis Assay: Annexin FITC by flow Cytometry. GH3, αT3 and human pituitary tumor cells were treated, washed in PBS, trypsinized, centrifuged, and washed prior to incubation with a FITC-labeled monoclonal Annexin antibody and PI for 30 min at room temperature according to manufacturer's instructions (Pharmingen, San Diego, Cailf.). About 1×10^6 cells were prepared and analyzed by flow cytometry, labeled nuclei (PI) were gated on light scatter to remove debris, and the percentage of Annexin-FITC positive cells determined. Annexin-FITC positive cells were also visualized with an Olympus BH2 immunofluorescent microscope.
# Terminal Deoxynucleotidyltransferase-mediated dUTP Nick End Labeling (TUNEL). Apoptosis-induced nuclear DNA fragmentation was detected using the in situ cell death detection kit, TMR red (Roche Diagnostics, Indianapolis, Ind.) following the manufacturer's protocol. Briefly, 48 hours following TZD treatment, GH3, αT3 and human pituitary tumor cells were fixed in 4% weight per volume paraformaldehyde, permeabilized with 0.1% sodium citrate/ 0.6% Tween 20 (pH 7.4) for 2 min at 4° C. prior to incubation in Tunel reaction mix (TMR red/dNTP mix, TdT, and labeling buffer) for 60 min at 37° C. Slides were washed (3×5 min) in PBS/Triton/BSA (0.3%) and visualized on a an Olympus BH2 immunofluorescent microscope.
# [10] = system: Somatolactotroph (GH3) tumor cells; test: Somato-lactotroph tumor growth in athymic nude mice; type: in vivo, mouse; settings: oral 150 mg/kg/day, 4 weeks
# [11] = system: gonadotroph tumor cells (LβT2); test: Gonadotroph tumor growth in nude mice; type: in vivo, mouse; settings: oral 150 mg/kg/day, 6 weeks
# From the text: FIG. 14A is a representative picture of a rosiglitazone-treated mouse (“Ros”) and an untreated (control) mouse 4 weeks following commencement of administration of treatment. The untreated (control) mouse in the picture developed numerous large visible tumors.
# In separate parallel similarly conducted studies, gonadotroph tumor cells (LβT2) were innoculated in mice as above.
# [12] = system: Mouse gonadotroph pituitary tumor cells (αT3); test: Growth of established gonadotroph tumors in athymic nude mice; type: in vivo; settings: oral 150 mg/kg/day for 6 weeks, started 3 weeks post-inoculation; vehicle 3.2±0.76, p=0.005
# From the text: As patients invariably present with already established and actively growing pituitary tumors, the effects of TZD treatment were therefore tested on growth of already established pituitary gonadotroph tumors in vivo. Mouse gonadotroph pituitary tumor cells (αT3) were inoculated subcutaneously in athymic nude mice, and tumors allowed to develop.
# [13] = system: POMC promoter (-706/+64 rat POMC-luc) in AtT20 cells; test: POMC promoter luciferase reporter transfection; type: cell-based, mouse; settings: CRH 50 nM, luciferase over vehicle control
# From the text: Transfection with POMC promoter.
molecule,measurement,setting,value
"Cc1c(C)c2c(c(C)c1O)CCC(C)(COc1ccc(CC3SC(=O)NC3=O)cc1)O2 (racemic) [Troglitazone, (±)-5-[4[(6-Hydroxy-2,5,7,8-tetramethylchroman-2-yl)methoxy]-benzyl]-2,4-thiazolidinedione]",expression of pro-apoptotic protein p53,[1],increased expression
same,reason for market withdrawal,"human patients; withdrawn in March, 2000",reports of liver toxicity in humans
"CN(CCOc1ccc(CC2SC(=O)NC2=O)cc1)c1ccccn1 (racemic) [rosiglitazone, (±)-5-[[4-[2-(methyl-2-pyridinylamino)ethoxy]phenyl]methyl]-2,4-thiazolidinedione,(Z)-2-butenedioate]",S-phase cells,"[2]; control 18±0.05%, p=0.001",12±0.5%
same,cells in G1 (G0-G1 cell-cycle arrest),"[2]; control 75±4%, p=0.009",85±2%
same,cells in S-phase,"[3]; control 31±0.5%, p=0.03",16±2.5%
same,cells in G1 (G0-G1 cell-cycle arrest),"[3]; control 67±0.5%, p=0.01",75±0.5%
same,cells in S-phase,"[4]; control 18±0.05%, p=0.001",12±0.5%
same,cells in G1 (G0-G1 cell-cycle arrest),"[4]; up to 48 h serum-free or up to 96 h serum-repleted, control 75±4%, p=0.009",85±2%
same,% apoptosis (TUNEL),"AtT20 cells; 10^−5 M, control 33±3%, p<0.001",69±7%
same,% apoptosis (TUNEL),"AtT20 cells; 10^−6 M, control 33±3%, p<0.001",47±4%
same,increase in apoptosis (TUNEL),"AtT20 cells; 48 hours after treatment, vs. control",2 fold
same,% apoptosis (TUNEL),"AtT20 cells; CRH 50 nM & ros 10^−5 M (pre-treatment before CRH), p<0.05 vs CRH",19±3%
same,tumor diameter,[5]; control 1-2 cm,0.1 cm
same,"serum corticosterone, mean±SEM","[5]; vehicle 785±374, p<0.05",113 ± 17 ng/mL
same,"plasma ACTH, mean±SEM","[5]; vehicle 2085±847, p<0.05",98 ± 33 pg/mL
same,reduction in plasma ACTH,[6]; vs. controls,75%
same,reduction in serum corticosterone levels,[6]; vs. controls,96%
same,"plasma ACTH, mean±SEM","[6]; controls 3841±308, p=0.002",978 ± 452 pg/mL
same,"serum corticosterone, mean±SEM","[6]; controls 4304±2593, p<0.05",181 ± 56 ng/mL
same,"serum corticosterone, treated vs. untreated normal mice",[7]; unstressed and stressed (data not shown),similar
same,"Plasma ACTH, baseline (unstressed), Mean±SEM","[7]; controls 434±40, p=ns",474 ± 33 pg/mL
same,"Plasma ACTH, stress-induced (15 minutes restraint), Mean±SEM","[7]; controls 5278±312, p=ns",4764 ± 292 pg/mL
same,decrease of 24 hour urinary free cortisol excretion (UFC),[8]; after 2 weeks,33%
same,decrease of 24 hour urinary free cortisol excretion (UFC),[8]; after 3 weeks,55%
same,% apoptosis,[9]; 10^−5 M,69±7%
same,% apoptosis,[9]; 10^−6 M,47±4%
same,tumor diameter,[10],1-2 cm
same,tumor weight,"[10]; control 0.13±0.01, p=0.008",0.04 ± 0.01 g
same,serum GH,"[10]; control 545±153, p=0.03",114 ± 66 ng/mL
same,serum PRL,"[10]; control 656±289, p=ns",95 ± 58 ng/mL
same,tumor weight,"[11]; control 3.44±0.42, P<0.002",0.81 ± 0.19 g
same,plasma LH,"[11]; control 69±19, p=0.004",6.8 ± 1.0 ng/mL
same,final tumor weight of established tumors,[12],0.76 ± 0.29 g
same,tolerability in humans,"human patients; About 20 milligrams per day, sustained periods of time",without adverse effects
same,"clinical surveillance, safety",human patients; more than 4500 patients with type 2 diabetes,"safe, effective"
"CRH: Corticotrophin releasing hormone, a potent corticotroph proliferative factor",% apoptosis (TUNEL),"AtT20 cells; CRH 50 nM alone, 24 hours",4±0.5%
same,increase in POMC-transcription,[13],1.6 fold
